In patent US20090075921A1, “Bone/joint disease sensitivity gene and use thereof” (Riken, priority 2004, published 2009):
d = 2'-deoxy (DNA); r = 2'-OH (RNA)

What was measured:
NHAC [1] = experiment: Asporin-specific siRNA transfection in NHAC, gene expression; format: cell-based, human; conditions: 24 hours, medium with 10 ng/ml TGF-β1
Protocol: Asporin-specific siRNA (Si9: […]; SEQ ID NO:35) was designed using an siRNA design support system in Takara Shuzo's website (http://www.takara-bio.co.jp/rnai/intro/htm). […] Cells were inoculated to a 12-well plate at 5×10^5 cells/well, and cultured in a DMEM/F12 containing 10% FBS, ITS, 10 ng/ml TGF-β1 and penicillin/streptomycin for 24 hours, and siRNA transfection was performed using TransIT-TKO (Takara Shuzo). Total RNA was extracted from the cells after 24 hours of cultivation, and examined for the expression of the type II collagen, aggrecan and TGF-β1 genes. […] Therefore, endogenous asporin was thought to negatively regulate the expression of cartilage substrate and the expression of TGF-β1 in NHAC.

NHAC [2] = experiment: Effects of SB431542 on gene expression induction by TGF-β1 in NHAC; format: cell-based, human; conditions: SB431542 10 μM added 30 minutes before TGF-β1 10 ng/ml, 12 hours
Protocol: A time course of the expression of the asporin gene by TGF-β1 in NHAC was examined as described below. Cells were inoculated to a 12-well plate at 1×10^5 cells/well, and cultured in a DMEM/F12 containing 10% FBS until they became confluent. The medium was exchanged with a DMEM/F12 containing 0.2% FBS, and the cells were cultured for 24 hours, after which TGF-β1 (10 ng/ml) was added, total RNA was extracted over time, and the expression levels of the asporin and GAPDH genes were examined. As a result, the expression level of the asporin gene maximized when the cells were cultured in the presence of TGF-β1 (10 ng/ml) for 12 hours, and thereafter the expression level decreased over time (FIG. 46).
In the experimental system for asporin gene expression induction by TGF-β1 used in the method described in Example 54, the effects of SB431542 (Sigma) (10 μM), an inhibitor of TGF-β1 type 1 receptor phosphorylation, on the induction of the expression of the asporin, type II collagen, aggrecan, and TGF-β1 genes (12 hours), when added 30 minutes before addition of TGF-β1 (10 ng/ml), were examined.

Compound	expression of the type II collagen, aggrecan and TGF-β1 genes (NHAC [1])	induction by TGF-β1 of the expression of the asporin, type II collagen, aggrecan, and TGF-β1 genes (NHAC [2])
UCCCUUCAGGAUUACCAGATT (siRNA; sugars from the 5' end r19 d2, backbone not given here) [asporin-specific siRNA]	significantly increased	
NC(=O)c1ccc(-c2nc(-c3ccc4c(c3)OCO4)c(-c3ccccn3)[nH]2)cc1 [SB431542]		inhibited the induction by TGF-β1 of the expression of these genes
